Among the test systems are EKVX NSCLC; HCT-116 colon; HCT-15 colon; HL-60(TB) leukemia; HOP-92 NSCLC; HT29 colon; LOX IMVI melanoma; M14 melanoma; NCI-H23 lung; NCI-H460 lung; OVCAR-5 ovarian; OVCAR-8 ovarian; SK-MEL-2 melanoma; SK-MEL-5 melanoma; SNB-75 CNS; SR leukemia; SW-620 colon; U251 CNS; OVCAR-3 ovarian.
Assay in all cases: inhibition of tumour cell growth, NCI panel, 48 h

Where “and” joins values, the source holds several entries; their conditions need not be identical. Equal entries are not always repeated.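 Five compound concentrations were applied to cells in 96-well plates for 48 hours; endpoints were derived by simple linear interpolation of the resulting dose-response curve. Here, GI50 denotes the concentration required for 50% inhibition of growth. TGI: concentration producing complete growth inhibition.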 Some results are limits rather than exact numbers.

In the case of `O=C(NC1C=Nc2ccc([N+](=O)[O-])cc2NC1=O)c1cc(Cl)cc([N+](=O)[O-])c1` (configuration not stated), the TGI with EKVX NSCLC, in the assay with HCT-116 colon, with HCT-15 colon, in the assay with HL-60(TB) leukemia, in the assay on HOP-92 NSCLC and in the assay with HT29 colon was more than 100 µM in each case. Also, the TGI in the assay on LOX IMVI melanoma, with M14 melanoma, with NCI-H23 lung, in the assay with NCI-H460 lung, in the assay with OVCAR-5 ovarian and in the assay on OVCAR-8 ovarian was more than 100 µM each time. The TGI in the assay with SK-MEL-2 melanoma, in the assay on SK-MEL-5 melanoma, in the assay with SNB-75 CNS, in the assay with SR leukemia, with SW-620 colon and in the assay on U251 CNS was more than 100 µM each time.

With `C[n+]1c2ccccc2c(NC(CS)C(=O)O)c2ccccc21` (configuration not stated), the TGI with EKVX NSCLC was more than 100 µM; with HCT-116 colon, 30.7 µM; in the assay on HCT-15 colon, more than 100 µM; in the assay with HL-60(TB) leukemia, 44.8 µM; in the assay with HOP-92 NSCLC, 60.2 µM; in the assay with HT29 colon, more than 100 µM. Also, the TGI with M14 melanoma is more than 100 µM; with NCI-H23 lung, more than 100 µM; in the assay on NCI-H460 lung it was more than 100 µM; in the assay with OVCAR-3 ovarian it was 71.9 µM; in the assay with OVCAR-5 ovarian it was more than 100 µM; in the assay with OVCAR-8 ovarian, 61.2 µM. Besides, the TGI was 89.7 µM with SK-MEL-2 melanoma; 44.6 µM with SK-MEL-5 melanoma; 73.5 µM with SNB-75 CNS; 39.4 µM with SR leukemia; more than 100 µM in the assay on SW-620 colon; 89.4 µM in the assay on U251 CNS.

As for `CC(C)(C)NCC(O)c1ccc(O)c(CO)n1` (configuration not stated), the TGI with EKVX NSCLC, in the assay on HCT-116 colon, in the assay on HCT-15 colon, in the assay on HL-60(TB) leukemia, with HOP-92 NSCLC and with HT29 colon was more than 100 µM in each case. The TGI in the assay on LOX IMVI melanoma, in the assay on M14 melanoma, in the assay with NCI-H23 lung, with NCI-H460 lung, in the assay with OVCAR-3 ovarian and with OVCAR-5 ovarian was more than 100 µM in each case. Moreover, the TGI in the assay on OVCAR-8 ovarian, with SK-MEL-2 melanoma, with SK-MEL-5 melanoma, with SNB-75 CNS, in the assay with SR leukemia and in the assay with SW-620 colon was more than 100 µM each time. Besides, the TGI in the assay on U251 CNS was more than 100 µM.

In the case of `Cc1ccc(N=Nc2ccc(N)cc2C)c(S(N)(=O)=O)c1`, the TGI with EKVX NSCLC was more than 100 µM; in the assay on HCT-116 colon, more than 100 µM; with HCT-15 colon, more than 100 µM; in the assay on HL-60(TB) leukemia, more than 100 µM; in the assay on HOP-92 NSCLC, 99.5 µM; with HT29 colon, more than 100 µM. In addition, the TGI in the assay with LOX IMVI melanoma, in the assay with M14 melanoma, with NCI-H23 lung, in the assay with NCI-H460 lung, in the assay with OVCAR-3 ovarian and with OVCAR-5 ovarian was more than 100 µM in each case. In addition, the TGI in the assay on OVCAR-8 ovarian, in the assay on SK-MEL-2 melanoma, with SK-MEL-5 melanoma, in the assay on SNB-75 CNS, with SR leukemia and in the assay with SW-620 colon was more than 100 µM each time. The compound further displayed a TGI in the assay on U251 CNS of more than 100 µM.

`Oc1ccc(Cc2nccc3cc(O)c(O)cc23)cc1O`: the TGI is more than 100 µM with EKVX NSCLC; 35.1 µM in the assay on HCT-116 colon; more than 100 µM with HCT-15 colon; more than 100 µM in the assay on HL-60(TB) leukemia; more than 100 µM in the assay on HOP-92 NSCLC; more than 100 µM in the assay on HT29 colon. Besides, the TGI is more than 100 µM with LOX IMVI melanoma; 78.2 µM with M14 melanoma; more than 100 µM in the assay on NCI-H23 lung; more than 100 µM with NCI-H460 lung; more than 100 µM in the assay on OVCAR-3 ovarian; more than 100 µM with OVCAR-5 ovarian. The TGI with OVCAR-8 ovarian was more than 100 µM; in the assay with SK-MEL-2 melanoma, more than 100 µM; with SK-MEL-5 melanoma it was more than 100 µM; in the assay with SNB-75 CNS, more than 100 µM; in the assay with SR leukemia it was 96.8 µM; in the assay with SW-620 colon, more than 100 µM. The compound also gave a TGI in the assay with U251 CNS of more than 100 µM.

Regarding `CC(C)(C)C(=O)CP(=O)(O)O`, the TGI with EKVX NSCLC, with HCT-116 colon, in the assay on HCT-15 colon, with HL-60(TB) leukemia, with HOP-92 NSCLC and in the assay with HT29 colon was more than 100 µM each time. Also, the TGI in the assay on LOX IMVI melanoma, with M14 melanoma, with NCI-H23 lung, with NCI-H460 lung, with OVCAR-3 ovarian and in the assay on OVCAR-5 ovarian was more than 100 µM in each case. Further, the TGI in the assay on OVCAR-8 ovarian, with SK-MEL-2 melanoma, in the assay with SK-MEL-5 melanoma, in the assay on SNB-75 CNS, in the assay on SR leukemia and in the assay with SW-620 colon was more than 100 µM in each case. The TGI in the assay with U251 CNS was more than 100 µM.

As for `C[n+]1ccc(Nc2ccc(NC(=O)c3ccc(Nc4cc[n+](C)c5ccc([N+](=O)[O-])cc45)cc3[N+](=O)[O-])cc2)cc1`, the TGI in the assay on EKVX NSCLC is more than 92.6 µM; in the assay on HCT-116 colon, more than 100 µM; in the assay on HCT-15 colon, more than 100 µM; in the assay on HL-60(TB) leukemia, > 47.7 µM and 69.9 µM; in the assay with HOP-92 NSCLC, 81.7 µM and > 77.1 µM; with HT29 colon, more than 100 µM. In addition, the TGI with LOX IMVI melanoma is more than 100 µM; in the assay with M14 melanoma, more than 100 µM; in the assay on NCI-H23 lung, more than 100 µM; in the assay on NCI-H460 lung, more than 100 µM; in the assay on OVCAR-3 ovarian, 54.6 µM and 54.3 µM; in the assay with OVCAR-5 ovarian, more than 100 µM. The TGI in the assay on OVCAR-8 ovarian is more than 100 µM; with SK-MEL-2 melanoma, more than 100 µM; in the assay with SK-MEL-5 melanoma it was 70.4 µM and > 70.4 µM; in the assay with SNB-75 CNS, more than 100 µM; in the assay on SR leukemia, more than 100 µM; in the assay on SW-620 colon it was more than 100 µM. In addition, the TGI with U251 CNS was more than 84.6 µM. Also, in the assay with HL-60(TB) leukemia, the GI50 was 4.7 µM and 10.3 µM.

Values taken from PubChem BioAssay (NCI).
